From ChEMBL document CHEMBL4364355, “New Negamycin-Based Potent Readthrough Derivative Effective against TGA-Type Nonsense Mutations” (ACS Med Chem Lett, 2019)
Activity calls are given as the source filed them. The calls are words filed in the database; no cut-off is given here.

Experiments:
Type in all cases: cell-based
Mus musculus [1] = organism: Mus musculus; experiment: (§1) Induction of read through activity at premature termination codon TGA (non-sense mutation associated with DMD disease) in 27-mer DNA stretch sequence of mouse dystrophin mdx gene transfected as a plasmid by connecting with beta-galactosidase and luciferase genes in COS7 cells assessed as ratio of luciferase activity to beta-galactosidase activity at 200 uM incubated for 48 hrs by dual luciferase reporter gene assay relative to control
Mus musculus [2] = organism: Mus musculus; experiment: as §1, with “cells” for “cells assessed as ratio of luciferase activity to beta-galactosidase activity at 200 uM”, “TGP112” for “control”
Mus musculus [3] = organism: Mus musculus; experiment: as §1, with “TAG” for “TGA”
Mus musculus [4] = organism: Mus musculus; experiment: as §1, with “TAA” for “TGA”
Homo sapiens [5] = organism: Homo sapiens; experiment: Induction of read through activity at premature termination codon TGA in human RLuc-DMD R3381X non-sense mutation sequence transfected in COS7 cells at 200 uM incubated for 48 hrs by dual luciferase reporter gene assay relative to control
Homo sapiens [6] = organism: Homo sapiens; experiment: Induction of read through activity at premature termination codon TGA in human RLuc-TP53 R213X non-sense mutation sequence transfected in COS7 cells at 200 uM incubated for 48 hrs by dual luciferase reporter gene assay relative to control
Homo sapiens [7] = organism: Homo sapiens; experiment: Induction of read through activity at premature termination codon TAG in human RLuc-TP53 Q192X non-sense mutation sequence transfected in COS7 cells at 200 uM incubated for 48 hrs by dual luciferase reporter gene assay relative to control
Homo sapiens [8] = organism: Homo sapiens; experiment: Induction of read through activity at premature termination codon TGA in human RLuc-CF G542X non-sense mutation sequence transfected in COS7 cells at 200 uM incubated for 48 hrs by dual luciferase reporter gene assay relative to control
Homo sapiens [9] = organism: Homo sapiens; experiment: Induction of read through activity at premature termination codon TGA in human RLuc-CF W1282X non-sense mutation sequence transfected in COS7 cells at 200 uM incubated for 48 hrs by dual luciferase reporter gene assay relative to control
Homo sapiens [10] = organism: Homo sapiens; experiment: Induction of read through activity at premature termination codon TGA in human RLuc-LAMA2 C1546X non-sense mutation sequence transfected in COS7 cells at 200 uM incubated for 48 hrs by dual luciferase reporter gene assay relative to control
HDQ-P1 [11] = experiment: (§2) Induction of read through activity at premature termination codon TGA in human HDQ-P1 cells harboring TP53 R213X homozygous non-sense mutation sequence assessed as expression of full length p53 protein at 200 uM incubated for 72 hrs by automated capillary electrophoresis western analysis relative to vinculin expression
HDQ-P1 [12] = experiment: Cytotoxicity against human HDQ-P1 cells at 200 uM; conditions: hdq-p1, 200 µM
COS-7 = experiment: Cytotoxicity against African green monkey COS7 cells assessed as decrease in cell viability by WST1 assay; conditions: Chlorocebus aethiops
Mus musculus [13] = organism: Mus musculus; experiment: as §1, with “cells” for “cells assessed as ratio of luciferase activity to beta-galactosidase activity at 200 uM”, “assay” for “assay relative to control”
HDQ-P1 [14] = experiment: as §2, with “12.5” for “200”
HDQ-P1 [15] = experiment: as §2, with “25” for “200”
HDQ-P1 [16] = experiment: as §2, with “50” for “200”
HDQ-P1 [17] = experiment: as §2, with “100” for “200”
HDQ-P1 [18] = experiment: Induction of read through activity at premature termination codon TGA in human HDQ-P1 cells harboring TP53 R213X homozygous non-sense mutation sequence at 200 uM incubated for 72 hrs by automated capillary electrophoresis western analysis relative to G418
Mus musculus [19] = organism: Mus musculus; experiment: as §1, with “cells” for “cells assessed as ratio of luciferase activity to beta-galactosidase activity at 200 uM”, “(+)-negamycin” for “control”
Mus musculus [20] = organism: Mus musculus; experiment: as §1, with “cells” for “cells assessed as ratio of luciferase activity to beta-galactosidase activity at 200 uM”, “(+)-G418” for “control”

SMILES: CN(CC(=O)O)NC(=O)C[C@H](CCN)NC(=O)[C@@H](N)CCC(=O)O
- Ratio (Mus musculus [1]): 1.8

SMILES: CN(CC(=O)O)NC(=O)C[C@H](CCN)NC(=O)[C@@H](N)CCCN
- Ratio (Mus musculus [1]): 2.96

SMILES: CCCCCCC[C@H](N)C(=O)N[C@@H](CCN)CC(=O)NN(C)CC(=O)O
- Ratio (Mus musculus [1]): 7.97
- Ratio (Mus musculus [2]): 2

SMILES: CC(C)C[C@@H](N)C(=O)N[C@@H](CCN)CC(=O)NN(C)CC(=O)O
- Ratio (Mus musculus [1]): 1.46

SMILES: CN[C@H]1[C@H](O)[C@H](O[C@@H]2[C@@H](O)[C@H](O[C@H]3O[C@H]([C@@H](C)O)[C@@H](O)[C@H](O)[C@H]3N)[C@@H](N)C[C@H]2N)OC[C@@]1(C)O
- Ratio (Mus musculus [1]): 7.43 to 7.99
- Ratio (Mus musculus [3]): 7.86
- Ratio (Mus musculus [4]): 4.78
- Activity (Homo sapiens [5]): 1.62 to 7.25%
- Activity (Homo sapiens [6]): 1.62 to 7.25%
- Activity (Homo sapiens [7]): 1.62 to 7.25%
- Activity (Homo sapiens [8]): 1.62 to 7.25%
- Activity (Homo sapiens [9]): 1.62 to 7.25%
- Activity (Homo sapiens [10]): 1.62 to 7.25%
- Ratio (HDQ-P1 [11]): 72
- Activity (HDQ-P1 [12]): Non-Toxic

SMILES: CN(CC(=O)O)NC(=O)C[C@H](N)C[C@@H](O)CN
- Ratio (Mus musculus [1]): 1.47 to 2.25
- Ratio (Mus musculus [3]): 1.17
- Ratio (Mus musculus [4]): 1.13

SMILES: CCCCCCCCCCC[C@H](N)C(=O)N[C@@H](CCN)CC(=O)NN(C)CC(=O)O
- IC50 (COS-7): 68.2 µM

SMILES: CN(CC(=O)O)NC(=O)C[C@H](CCN)NC(=O)[C@@H](N)Cc1ccccc1
- Ratio (Mus musculus [1]): 2.99

SMILES: CN(CC(=O)O)NC(=O)C[C@H](CCN)NC(=O)[C@@H](N)CC(=O)O
- Ratio (Mus musculus [1]): 1.96

SMILES: CC(C)C[C@H](N)C(=O)N[C@@H](CCN)CC(=O)NN(C)CC(=O)O
- Ratio (Mus musculus [1]): 4.94

SMILES: CC(C)C[C@H](N)C(=O)N[C@@H](CCCN)CC(=O)NN(C)CC(=O)O
- Ratio (Mus musculus [1]): 2.3
- Ratio (Mus musculus [3]): 1.3
- Ratio (Mus musculus [4]): 1.11

SMILES: CN(CC(=O)O)NC(=O)C[C@H](CCN)NC(=O)[C@@H](N)CN
- Ratio (Mus musculus [1]): 3.02

SMILES: CN(CC(=O)O)NC(=O)C[C@H](CCN)NC(=O)[C@@H](N)CCCCN
- Ratio (Mus musculus [1]): 2.49

SMILES: CCCCCCCCC[C@H](N)C(=O)N[C@@H](CCN)CC(=O)NN(C)CC(=O)O
- Ratio (Mus musculus [1]): 16 to 18.3
- Ratio (Mus musculus [3]): 4.39
- Ratio (Mus musculus [4]): 2.24
- Activity (Mus musculus [13]): Dose-dependent effect
- Activity (Homo sapiens [5]): 2.25 to 7.3%
- Activity (Homo sapiens [6]): 2.25 to 7.3%
- Activity (Homo sapiens [7]): inactive
- Activity (Homo sapiens [8]): 2.25 to 7.3%
- Activity (Homo sapiens [9]): inactive
- Activity (Homo sapiens [10]): 6.34%
- Ratio (HDQ-P1 [11]): 215
- Ratio (HDQ-P1 [14]): 2.3
- Ratio (HDQ-P1 [15]): 2.4
- Ratio (HDQ-P1 [16]): 6.7
- Ratio (HDQ-P1 [17]): 48
- Ratio (HDQ-P1 [18]): 3
- Ratio (Mus musculus [19]): 10
- Ratio (Mus musculus [20]): 2
- Ratio (Mus musculus [2]): 4

SMILES: CN(CC(=O)O)NC(=O)C[C@H](CCN)NC(=O)CN
- Ratio (Mus musculus [1]): 2.74

SMILES: CN(CC(=O)O)NC(=O)C[C@H](CCN)NC(=O)[C@@H](N)CCC(N)=O
- Ratio (Mus musculus [1]): 1.62

SMILES: CN[C@@H](CC(C)C)C(=O)N[C@@H](CCN)CC(=O)NN(C)CC(=O)O
- Ratio (Mus musculus [1]): 2.45

SMILES: CCCCC[C@H](N)C(=O)N[C@@H](CCN)CC(=O)NN(C)CC(=O)O
- Ratio (Mus musculus [1]): 3.4

SMILES: C[C@H](N)C(=O)N[C@@H](CCN)CC(=O)NN(C)CC(=O)O
- Ratio (Mus musculus [1]): 2.4

SMILES: CN(CC(=O)O)NC(=O)C[C@H](CCN)NC(=O)[C@@H](N)CO
- Ratio (Mus musculus [1]): 1.48

SMILES: CC(C)[C@H](N)C(=O)N[C@@H](CCN)CC(=O)NN(C)CC(=O)O
- Ratio (Mus musculus [1]): 2

SMILES: CC[C@H](C)[C@H](N)C(=O)N[C@@H](CCN)CC(=O)NN(C)CC(=O)O
- Ratio (Mus musculus [1]): 1.83

SMILES: CC(C)CCC(=O)N[C@@H](CCN)CC(=O)NN(C)CC(=O)O
- Ratio (Mus musculus [1]): 2.82

SMILES: CN(CC(=O)O)NC(=O)C[C@@H](N)CCN
- Ratio (Mus musculus [1]): 3.8 to 4.26
- Ratio (Mus musculus [3]): 1.48
- Ratio (Mus musculus [4]): 1.2
- Activity (Homo sapiens [6]): 1.95%
- Activity (Homo sapiens [10]): 1.85%
- Ratio (HDQ-P1 [11]): 7.9

SMILES: CN(CC(=O)O)NC(=O)C[C@H](CCN)NC(=O)[C@@H](N)CCN
- Ratio (Mus musculus [1]): 3.25

SMILES: CN(CC(=O)O)NC(=O)C[C@H](CCN)NC(=O)[C@@H](N)CC1CCCCC1
- Ratio (Mus musculus [1]): 5.87

SMILES: CN(CC(=O)O)NC(=O)C[C@H](CCN)NC(=O)[C@@H](N)CC(N)=O
- Ratio (Mus musculus [1]): 2.21

SMILES: CCCC[C@H](N)C(=O)N[C@@H](CCN)CC(=O)NN(C)CC(=O)O
- Ratio (Mus musculus [1]): 4.21

SMILES: CN(CC(=O)O)NC(=O)C[C@H](CCN)NC(=O)[C@@H](N)Cc1ccc(O)cc1
- Ratio (Mus musculus [1]): 2.59
